# Measured values as given in patent US12084453B2, “Bicyclic amines as CDK12 inhibitors” (Incyte Corporation, priority 2021, dated 2024).
# Molecular target: T1, CDK12 complexed with Cyclin K (Homo sapiens, UniProt Q9NYV4)
# T1 construct: GST (N); host or cells: baculovirus expression system
# Assay: CDK enzymatic assay (HTRF, LANCE Ultra kinase assay)
# Assay type: biochemical
# Details: 60 minutes pre-incubation with compound; 1 mM ATP
# Protocol: The following activity of the CDK enzymes in complex with their respective cyclins we assayed: CDK1 complexed with Cyclin B1; CDK2 complexed with Cyclin E1; CDK4 complexed with Cyclin D1; CDK6 complexed with Cyclin D1; CDK6 complexed with Cyclin D3; CDK9 complexed with Cyclin T1; CDK7 complexed with Cyclin H/MAT1; CDK2 complexed with Cyclin A2; CDK5 complexed with p35; CDK12 complexed with Cyclin K; CDK13 complexed with Cyclin K. These in vitro enzyme activity are assayed using homogeneous time-resolved energy transfer (HTRF), which measures phosphorylation of a peptide substrate. The LANCE® Ultra kinase assay (PerkinElmer) uses a ULight™-labeled EIF4E-binding protein 1 (THR37/46) peptide (DYSTTPGGTLFSTTPGTRI (SEQ ID NO: 1)) substrate and a Europium-labeled anti-phospho-4E-BP1 antibody (CDK2, CDK1, CDK4, CDK6, CDK9, CDK12, CDK13) or ULight™-labeled Myelin Basic Protein peptide (VTPRTPPP (SEQ ID NO: 2)) substrate and a Europium-labeled anti-phospho-MBP antibody (CDK7). Each CDK enzyme activity assays utilized human CDK co-expressed as N-terminal GST-tagged protein with its full length cyclin partner using a baculovirus expression system.
# Enzyme was pre-incubated with compounds for 30 minutes (CDK1,2,4,6,9) or 60 minutes (CDK7, CDK12, CDK13) prior to addition of ATP and Ulight-peptide (1 mM and 50 nM final, respectively), in assay buffer containing 50 mM HEPES pH 7.5, 1 mM EGTA, 10 mM MgCl2, 2 mM DTT, 0.05 mg/mL BSA, and 0.01% Tween 20. The reaction was then incubated for 60-90 minutes at room temperature. The reactions were stopped by the addition of EDTA and Europium labeled antibody, for a final concentration of 15 mM and 1.0-1.5 nM, respectively. HTRF signals were read after 15-120 minutes. A ratio of fluorescence transferred to the labeled substrate (665 nm) relative to fluorescence of the Europium donor (620 nm) represents the extent of phosphorylation. Ratios for treated wells were normalized to DMSO only (100% activity) and no enzyme (0% activity) controls. Normalized data was analyzed using a three or four parameter dose response curve to determine IC50 for each compound and are shown in Table A. Control reference inhibitors were included on each plate.
# T1 sequence (Q9NYV4 whole entry): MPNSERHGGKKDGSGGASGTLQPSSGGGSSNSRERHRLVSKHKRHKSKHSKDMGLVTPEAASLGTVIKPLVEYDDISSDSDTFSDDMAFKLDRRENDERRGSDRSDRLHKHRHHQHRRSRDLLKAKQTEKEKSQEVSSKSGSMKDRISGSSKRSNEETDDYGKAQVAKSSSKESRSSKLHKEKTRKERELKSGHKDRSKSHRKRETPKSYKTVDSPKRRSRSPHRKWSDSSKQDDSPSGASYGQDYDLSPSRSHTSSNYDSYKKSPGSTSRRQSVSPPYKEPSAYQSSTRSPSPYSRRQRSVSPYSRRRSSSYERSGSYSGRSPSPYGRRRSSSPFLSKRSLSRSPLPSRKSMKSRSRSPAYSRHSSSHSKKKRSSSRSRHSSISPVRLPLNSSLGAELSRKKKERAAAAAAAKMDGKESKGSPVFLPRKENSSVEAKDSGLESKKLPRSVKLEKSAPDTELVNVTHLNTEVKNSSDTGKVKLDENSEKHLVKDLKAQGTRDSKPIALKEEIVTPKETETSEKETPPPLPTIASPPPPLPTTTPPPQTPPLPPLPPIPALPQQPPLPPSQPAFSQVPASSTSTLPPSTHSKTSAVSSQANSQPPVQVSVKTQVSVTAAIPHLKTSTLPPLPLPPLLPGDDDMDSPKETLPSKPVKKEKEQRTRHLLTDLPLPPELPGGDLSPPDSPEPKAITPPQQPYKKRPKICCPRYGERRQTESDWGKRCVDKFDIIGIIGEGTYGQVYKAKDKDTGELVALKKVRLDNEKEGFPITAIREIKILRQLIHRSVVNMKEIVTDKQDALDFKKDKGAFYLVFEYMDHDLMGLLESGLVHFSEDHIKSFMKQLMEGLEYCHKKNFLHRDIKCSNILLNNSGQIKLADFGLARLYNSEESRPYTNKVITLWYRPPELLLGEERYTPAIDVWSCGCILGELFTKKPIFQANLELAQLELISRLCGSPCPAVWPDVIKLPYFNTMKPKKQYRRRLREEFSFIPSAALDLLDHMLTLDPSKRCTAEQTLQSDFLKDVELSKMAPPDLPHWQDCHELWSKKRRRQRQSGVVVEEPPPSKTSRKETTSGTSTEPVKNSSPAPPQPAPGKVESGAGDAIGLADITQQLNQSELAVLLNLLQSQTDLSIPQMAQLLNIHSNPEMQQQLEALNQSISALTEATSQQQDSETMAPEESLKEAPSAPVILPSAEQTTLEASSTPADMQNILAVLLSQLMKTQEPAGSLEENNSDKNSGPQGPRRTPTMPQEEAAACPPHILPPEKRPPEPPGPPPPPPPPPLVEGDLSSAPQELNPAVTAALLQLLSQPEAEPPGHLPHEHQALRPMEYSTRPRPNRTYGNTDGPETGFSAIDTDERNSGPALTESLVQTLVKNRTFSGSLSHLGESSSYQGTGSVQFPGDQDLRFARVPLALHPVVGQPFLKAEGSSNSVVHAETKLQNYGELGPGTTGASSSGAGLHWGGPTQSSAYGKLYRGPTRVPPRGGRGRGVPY
# T1 sequence (O75909 whole entry partner): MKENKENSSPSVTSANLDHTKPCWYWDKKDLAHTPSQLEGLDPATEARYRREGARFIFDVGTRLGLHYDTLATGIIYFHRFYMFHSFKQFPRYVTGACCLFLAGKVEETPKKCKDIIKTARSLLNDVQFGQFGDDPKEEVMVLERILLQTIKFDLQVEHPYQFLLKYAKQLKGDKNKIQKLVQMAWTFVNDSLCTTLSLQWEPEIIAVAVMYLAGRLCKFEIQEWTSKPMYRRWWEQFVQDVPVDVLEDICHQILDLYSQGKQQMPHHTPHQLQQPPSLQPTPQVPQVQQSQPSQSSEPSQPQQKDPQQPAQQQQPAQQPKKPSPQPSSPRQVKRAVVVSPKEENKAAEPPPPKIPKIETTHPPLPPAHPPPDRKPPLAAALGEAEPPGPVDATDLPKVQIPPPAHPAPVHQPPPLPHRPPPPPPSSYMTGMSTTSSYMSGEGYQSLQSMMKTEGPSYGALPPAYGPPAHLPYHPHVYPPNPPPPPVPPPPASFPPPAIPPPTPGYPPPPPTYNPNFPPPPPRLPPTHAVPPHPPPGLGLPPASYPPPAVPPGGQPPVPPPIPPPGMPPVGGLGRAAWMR
row,IC50 [nM],Structure (SMILES)
1,< 50,"C=CC(=O)N(C)c1ccc(C(=O)N2CC[C@@H](Nc3nc4ccc(-c5cn[nH]c5)c(C(C)C)n4n3)C2)cc1 [Example 25, (R)-N-(4-(3-((5-Isopropyl-6-(1H-pyrazol-4-yl)-[1,2,4]triazolo[1,5-a]pyridin-2-yl)amino)pyrrolidine-1-carbonyl)phenyl)-N-methylacrylamide]"
2,< 50,"C=CC(=O)Nc1ccc2sc(N3CCC[C@@H](Nc4nc5ccc(-c6cn[nH]c6)c(C(C)C)n5n4)C3)nc2c1 [Example 27, (R)-N-(2-(3-((5-Isopropyl-6-(1H-pyrazol-4-yl)-[1,2,4]triazolo[1,5-a]pyridin-2-yl)amino)piperidin-1-yl)benzo[d]thiazol-5-yl)acrylamide]"
3,< 50,"C=CC(=O)Nc1ccc2sc(N3CCC[C@@H](Nc4nc5ccc(-c6cn[nH]c6)c(C)n5n4)C3)nc2c1 [Example 29, (R)-N-(2-(3-((5-Methyl-6-(1H-pyrazol-4-yl)-[1,2,4]triazolo[1,5-a]pyridin-2-yl)amino)piperidin-1-yl)benzo[d]thiazol-5-yl)acrylamide]"
4,< 50,"C=C(F)C(=O)Nc1ccc(C(=O)N2CC[C@@H](Nc3nc4cc(-c5cn[nH]c5)ccn4n3)C2)cc1 [Example 31, (R)-N-(4-(3-((7-(1H-Pyrazol-4-yl)-[1,2,4]triazolo[1,5-a]pyridin-2-yl)amino)pyrrolidine-1-carbonyl)phenyl)-2-fluoroacrylamide]"
5,< 50,"C=C(F)C(=O)Nc1ccc(C(=O)N2CC[C@@H](Nc3nc4c(C)c(-c5cn[nH]c5)ccn4n3)C2)cc1 [Example 32, (R)-2-Fluoro-N-(4-(3-((8-methyl-7-(1H-pyrazol-4-yl)-[1,2,4]triazolo[1,5-a]pyridin-2-yl)amino)pyrrolidine-1-carbonyl)phenyl)acrylamide]"
6,< 50,"C=CC(=O)Nc1ccc2c(c1)C(=O)N([C@H]1CCC[C@@H](Nc3nc4ccc(-c5cn[nH]c5)c(C(F)(F)F)n4n3)C1)C2 [Example 34, N-(2-((1S,3R)-3-((6-(1H-pyrazol-4-yl)-5-(trifluoromethyl)-[1,2,4]triazolo[1,5-a]pyridin-2-yl)amino)cyclohexyl)-3-oxoisoindolin-5-yl)acrylamide]"
7,< 50,"C=CC(=O)Nc1ccc2c(c1)nc(N1CCC[C@@H](Nc3nc4ccc(-c5cn[nH]c5)c(C(F)(F)F)n4n3)C1)n2C [Example 36, (R)-N-(2-(3-((6-(1H-pyrazol-4-yl)-5-(trifluoromethyl)-[1,2,4]triazolo[1,5-a]pyridin-2-yl)amino)piperidin-1-yl)-1-methyl-1H-benzo[d]imidazol-5-yl)acrylamide]"

# More lines, now with the values behind:
row,Structure (SMILES),IC50 [nM]
1,"C=C(F)C(=O)Nc1ccc(C(=O)N2CC[C@@H](Nc3nc4ccc(-c5cn[nH]c5)c(C(C)C)n4n3)C2)cc1 [Example 26, (R)-2-Fluoro-N-(4-(3-((5-isopropyl-6-(1H-pyrazol-4-yl)-[1,2,4]triazolo[1,5-a]pyridin-2-yl)amino)pyrrolidine-1-carbonyl)phenyl)acrylamide]",< 50
2,"C=CC(=O)Nc1ccc2c(c1)nc(N1CCC[C@@H](Nc3nc4ccc(-c5cn[nH]c5)c(C(C)C)n4n3)C1)n2C [Example 28, (R)-N-(2-(3-((5-Isopropyl-6-(1H-pyrazol-4-yl)-[1,2,4]triazolo[1,5-a]pyridin-2-yl)amino)piperidin-1-yl)-1-methyl-1H-benzo[d]imidazol-5-yl)acrylamide]",< 50
3,"C=CC(=O)Nc1ccc(C(=O)N2CC[C@@H](Nc3nc4ccc(-c5cn[nH]c5)c(C(F)(F)F)n4n3)C2)cc1 [Example 30, (R)-N-(4-(3-((6-(1H-Pyrazol-4-yl)-5-(trifluoromethyl)-[1,2,4]triazolo[1,5-a]pyridin-2-yl)amino)pyrrolidine-1-carbonyl)phenyl)acrylamide]",< 50
4,"CC#CC(=O)Nc1ccc(C(=O)N2CC[C@@H](Nc3nc4c(C)c(-c5cn[nH]c5)ccn4n3)C2)cc1 [Example 33, (R)-N-(4-(3-((8-Methyl-7-(1H-pyrazol-4-yl)-[1,2,4]triazolo[1,5-a]pyridin-2-yl)amino)pyrrolidine-1-carbonyl)phenyl)but-2-ynamide]",< 50
5,"C=CC(=O)Nc1ccc2sc(N3CCC[C@@H](Nc4nc5ccc(-c6cn[nH]c6)c(C(F)(F)F)n5n4)C3)nc2c1 [Example 35, (R)-N-(2-(3-((6-(1H-pyrazol-4-yl)-5-(trifluoromethyl)-[1,2,4]triazolo[1,5-a]pyridin-2-yl)amino)piperidin-1-yl)benzo[d]thiazol-5-yl)acrylamide]",< 50
6,"C=CC(=O)Nc1cnc(N2CCC[C@@H](Nc3nc4ccc(-c5cn[nH]c5)c(C(C)C)n4n3)C2)c(C)c1 [Example 37, (R)-N-(6-(3-((5-isopropyl-6-(1H-pyrazol-4-yl)-[1,2,4]triazolo[1,5-a]pyridin-2-yl)amino)piperidin-1-yl)-5-methylpyridin-3-yl)acrylamide]",< 50
7,"C=CC(=O)Nc1cnc(N2CCC[C@@H](Nc3nc4ccc(-c5cn[nH]c5)c(C(F)(F)F)n4n3)C2)c(C)c1 [Example 38, (R)-N-(6-(3-((6-(1H-pyrazol-4-yl)-5-(trifluoromethyl)-[1,2,4]triazolo[1,5-a]pyridin-2-yl)amino)piperidin-1-yl)-5-methylpyridin-3-yl)acrylamide]",< 50
